Where two headings read alike, the source gives them in different places.
Biological target: T1, IRAK4 (Homo sapiens, UniProt Q9NWZ3)
T1 construct: Degradation of IRAK4 in OCI-LY10 was quantitatively measured using Meso Scale Discovery technology; endogenous in cells; host or cells: OCI-LY10
T1 sequence (Q9NWZ3 1-460): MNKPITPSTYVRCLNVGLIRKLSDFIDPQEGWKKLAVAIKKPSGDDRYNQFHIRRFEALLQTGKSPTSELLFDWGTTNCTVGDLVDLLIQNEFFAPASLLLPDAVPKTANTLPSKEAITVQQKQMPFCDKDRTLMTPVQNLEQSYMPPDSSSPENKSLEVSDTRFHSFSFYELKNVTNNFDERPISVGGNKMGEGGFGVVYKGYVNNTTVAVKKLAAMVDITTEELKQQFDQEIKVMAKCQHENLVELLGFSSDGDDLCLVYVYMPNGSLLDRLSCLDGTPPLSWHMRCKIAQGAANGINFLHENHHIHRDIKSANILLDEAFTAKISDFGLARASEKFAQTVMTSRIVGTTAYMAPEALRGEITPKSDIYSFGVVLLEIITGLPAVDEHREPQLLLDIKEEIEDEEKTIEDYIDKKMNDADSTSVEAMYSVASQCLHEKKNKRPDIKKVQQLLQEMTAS
Test: IRAK4 MSD Degradation in OCI-LY10
Type: cell-based
Settings: OCI-LY10 cells, MSD
Method in brief: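 OCI-LY10 cells exposed to 8-point 1:3 compound series (top 1 to 10 μM) for 4 to 24 h at 37 °C, 5% CO2. Lysate IRAK4 quantified by MSD sandwich immunoassay. DC50 from three-parameter logistic fit, binned A (<0.01 μM) to D (>0.2 μM or not tested).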

[1] = 4 hrs incubation, read-out: IRAK4 degradation in OCI-LY10 at 4 hrs: DC50
[2] = 24 hrs incubation, read-out: IRAK4 degradation in OCI-LY10 at 24 hrs: DC50

| SMILES | DC50 [1] | DC50 [2] |
| --- | --- | --- |
| CO[C@]1(CN2CCN(C[C@H]3CC[C@H](n4cc(NC(=O)c5cnn6ccc(N7C[C@H]8C[C@@H]7CO8)nc56)c(C(F)F)n4)CC3)CC2)C[C@@H](c2cccc3c2n(C)c(=O)n3C2CCC(=O)NC2=O)C1 (stereo partly drawn) [I-729] | > 200 nM | < 10 nM |
| Cn1c(=O)n(C2CCC(=O)NC2=O)c2cccc(N3CC(N4CCN([C@H]5CC[C@H](n6cc(NC(=O)c7cnn8ccc(N9C[C@H]%10C[C@@H]9CO%10)nc78)c(C(F)F)n6)CC5)CC4)C3)c21 (stereo partly drawn) [I-730] | > 200 nM | < 10 nM |
| Cn1c(=O)n(C2CCC(=O)NC2=O)c2cccc(C3CCN(C[C@H]4CC[C@H](n5cc6cc(NC(=O)c7cccc(C#N)n7)ncc6n5)CC4)CC3F)c21 (stereo partly drawn) [I-731] | > 200 nM | < 10 nM |
| Cn1c(=O)n(C2CCC(=O)NC2=O)c2cccc(N3CC(O[C@@H]4CCN(C[C@H]5CC[C@H](n6cc(NC(=O)c7cnn8ccc(N9C[C@H]%10C[C@@H]9CO%10)nc78)c(C(F)F)n6)CC5)C[C@H]4F)C3)c21 (stereo partly drawn) [I-732] | > 200 nM | < 10 nM |
| Cn1c(=O)n(C2CCC(=O)NC2=O)c2cccc(N3CC(O[C@H]4CCN(C[C@H]5CC[C@H](n6cc(NC(=O)c7cnn8ccc(N9C[C@H]%10C[C@@H]9CO%10)nc78)c(C(F)F)n6)CC5)C[C@@H]4F)C3)c21 (stereo partly drawn) [I-733] | > 200 nM | < 10 nM |
| Cn1c(=O)n(C2CCC(=O)NC2=O)c2cccc(C3CCN(CC4CCC(n5cc6cc(NC(=O)c7cnn8ccc(N9CC%10CC9CO%10)cc78)ncc6n5)CC4)CC3(F)F)c21 (stereo not drawn) [I-734] | > 200 nM | < 10 nM |
| Cn1c(=O)n(C2CCC(=O)NC2=O)c2cccc(N3CCN(C4CCN(C[C@H]5CC[C@H](n6cc(NC(=O)c7cnn8ccc(N9CC%10(COC%10)C9)nc78)c(C(F)F)n6)CC5)CC4(F)F)CC3)c21 (stereo partly drawn) [I-735] | > 200 nM | < 10 nM |
| Cn1c(=O)n(C2CCC(=O)NC2=O)c2ccc(N3CC4(CCN(C[C@H]5CC[C@H](n6cc7cc(NC(=O)c8cccc(C(F)(F)F)n8)ncc7n6)CC5)CC4(F)F)C3)c(F)c21 (stereo partly drawn) [I-737] | > 200 nM | 10 to 100 nM |
| Cn1c(=O)n(C2CCC(=O)NC2=O)c2cccc(OC3CCN([C@H]4CC[C@H](n5cc(NC(=O)c6cnn7ccc(N8C[C@H]9C[C@@H]8CO9)nc67)c(C(F)F)n5)CC4)CC3)c21 (stereo partly drawn) [I-739] | > 200 nM | < 10 nM |
| Cn1c(=O)n(C2CCC(=O)NC2=O)c2cccc(OC3CCN([C@H]4CC[C@H](n5cc6cc(NC(=O)c7cccc(C(F)(F)F)n7)ncc6n5)CC4)CC3)c21 (stereo partly drawn) [I-740] | > 200 nM | < 10 nM |
| Cn1c(=O)n(C2CCC(=O)NC2=O)c2cccc(OC3CCN([C@H]4CC[C@H](n5cc6cc(NC(=O)c7cccc(C(F)(F)F)n7)ccc6n5)CC4)CC3)c21 (stereo partly drawn) [I-741] | > 200 nM | < 10 nM |
| Cn1c(=O)n(C2CCC(=O)NC2=O)c2ccc(N3CC(CO[C@@H]4CCN(C[C@H]5CC[C@H](n6cc(NC(=O)c7cnn8ccc(N9C[C@H]%10C[C@@H]9CO%10)nc78)c(C(F)F)n6)CC5)C[C@H]4F)C3)c(F)c21 (stereo partly drawn) [I-742] | > 200 nM | < 10 nM |
| Cn1c(=O)n(C2CCC(=O)NC2=O)c2ccnc(N3CCN([C@@H]4CCN(C[C@H]5CC[C@H](n6cc(NC(=O)c7cnn8ccc(N9C[C@H]%10C[C@@H]9CO%10)nc78)c(C(F)F)n6)CC5)CC4(F)F)CC3)c21 (stereo partly drawn) [I-743] | > 200 nM | < 10 nM |
| Cn1c(=O)n(C2CCC(=O)NC2=O)c2ccnc(N3CCN([C@H]4CCN(C[C@H]5CC[C@H](n6cc(NC(=O)c7cnn8ccc(N9C[C@H]%10C[C@@H]9CO%10)nc78)c(C(F)F)n6)CC5)CC4(F)F)CC3)c21 (stereo partly drawn) [I-744] | > 200 nM | < 10 nM |
| Cn1c(=O)n(C2CCC(=O)NC2=O)c2ccc(F)c(N3CC(N4CCN([C@H]5CC[C@H](n6cc(NC(=O)c7cnn8ccc(N9C[C@H]%10C[C@@H]9CO%10)nc78)c(C(F)F)n6)CC5)CC4)C3)c21 (stereo partly drawn) [I-745] | > 200 nM | < 10 nM |
| Cn1c(=O)n(C2CCC(=O)NC2=O)c2cccc(N3CCN([C@@H]4CCN(C[C@H]5CC[C@H](n6cc(NC(=O)c7cnn8ccc(N9CC%10(COC%10)C9)nc78)c(C(F)F)n6)CC5)CC4(F)F)CC3)c21 (stereo partly drawn) [I-746] | > 200 nM | > 200 nM |
| Cn1c(=O)n(C2CCC(=O)NC2=O)c2cccc(N3CCN([C@H]4CCN(C[C@H]5CC[C@H](n6cc(NC(=O)c7cnn8ccc(N9CC%10(COC%10)C9)nc78)c(C(F)F)n6)CC5)CC4(F)F)CC3)c21 (stereo partly drawn) [I-747] | > 200 nM | > 200 nM |
| Cn1c(=O)n(C2CCC(=O)NC2=O)c2cccc(N3CC(CN4CCN(C[C@H]5CC[C@H](n6cc(NC(=O)c7cnn8ccc(N9C[C@H]%10C[C@@H]9CO%10)nc78)c(C(F)F)n6)CC5)CC4)C3)c21 (stereo partly drawn) [I-748] | > 200 nM | > 200 nM |

| SMILES | DC50 [1] | DC50 [2] |
| --- | --- | --- |
| Cn1c(=O)n(C2CCC(=O)NC2=O)c2cccc(C3CN([C@@H]4CCN([C@H]5CC[C@H](n6cc(NC(=O)c7cnn8ccc(N9C[C@H]%10C[C@@H]9CO%10)nc78)c(C(F)F)n6)CC5)CC4(F)F)C3)c21 (stereo partly drawn) [I-749] | > 200 nM | > 200 nM |
| Cn1c(=O)n(C2CCC(=O)NC2=O)c2cccc(C3CN([C@H]4CCN([C@H]5CC[C@H](n6cc(NC(=O)c7cnn8ccc(N9C[C@H]%10C[C@@H]9CO%10)nc78)c(C(F)F)n6)CC5)CC4(F)F)C3)c21 (stereo partly drawn) [I-750] | > 200 nM | > 200 nM |
| Cn1c(=O)n(C2CCC(=O)NC2=O)c2ccc(N3CC(N4CCN([C@H]5CC[C@H](n6cc(NC(=O)c7cnn8ccc(N9C[C@H]%10C[C@@H]9CO%10)nc78)c(C(F)F)n6)CC5)CC4)C3)c(F)c21 (stereo partly drawn) [I-751] | > 200 nM | > 200 nM |
| Cn1c(=O)n(C2CCC(=O)NC2=O)c2ccc(C3CN(C4CCN([C@H]5CC[C@H](n6cc(NC(=O)c7cnn8ccc(N9C[C@H]%10C[C@@H]9CO%10)nc78)c(C(F)F)n6)CC5)CC4(F)F)C3)c(F)c21 (stereo partly drawn) [I-752] | > 200 nM | > 200 nM |
| Cn1c(=O)n(C2CCC(=O)NC2=O)c2ccc(F)c(C3CN(C4CCN([C@H]5CC[C@H](n6cc(NC(=O)c7cnn8ccc(N9C[C@H]%10C[C@@H]9CO%10)nc78)c(C(F)F)n6)CC5)CC4(F)F)C3)c21 (stereo partly drawn) [I-753] | > 200 nM | > 200 nM |
| Cn1c(=O)n(C2CCC(=O)NC2=O)c2cccc(OC3CCN([C@H]4CC[C@H](n5cc6cc(NC(=O)c7cccc(C(F)(F)F)n7)ccc6n5)CC4)CC3(F)F)c21 (stereo partly drawn) [I-754] | > 200 nM | > 200 nM |
| Cn1c(=O)n(C2CCC(=O)NC2=O)c2cccc(OC3CCN([C@H]4CC[C@H](n5cc6cc(NC(=O)c7cccc(C(F)(F)F)n7)ncc6n5)CC4)CC3(F)F)c21 (stereo partly drawn) [I-755] | > 200 nM | > 200 nM |
| Cn1c(=O)n(C2CCC(=O)NC2=O)c2cccc(OC3CCN([C@H]4CC[C@H](n5cc(NC(=O)c6cnn7ccc(N8C[C@H]9C[C@@H]8CO9)nc67)c(C(F)F)n5)CC4)CC3(F)F)c21 (stereo partly drawn) [I-756] | > 200 nM | > 200 nM |
| Cn1c(=O)n(C2CCC(=O)NC2=O)c2cccc(C#CCN3CCC(C[C@H]4CC[C@H](n5cc(NC(=O)c6cnn7ccc(N8C[C@H]9C[C@@H]8CO9)nc67)c(C(F)F)n5)CC4)CC3)c21 (stereo partly drawn) [I-757] | > 200 nM | > 200 nM |
| Cn1c(=O)n(C2CCC(=O)NC2=O)c2cccc(C#CCN3CCC(C[C@H]4CC[C@H](n5cc6cc(NC(=O)c7cccc(C(F)(F)F)n7)ccc6n5)CC4)CC3)c21 (stereo partly drawn) [I-758] | > 200 nM | > 200 nM |
| Cn1c(=O)n(C2CCC(=O)NC2=O)c2cccc(C#CCN3CCC(C[C@H]4CC[C@H](n5cc6cc(NC(=O)c7cccc(C(F)(F)F)n7)ncc6n5)CC4)CC3)c21 (stereo partly drawn) [I-759] | > 200 nM | > 200 nM |
| Cn1c(=O)n(C2CCC(=O)NC2=O)c2cccc(N3CC(C4CCN([C@H]5CC[C@@H](n6cc(NC(=O)c7cnn8ccc(N9C[C@H]%10C[C@@H]9CO%10)nc78)c(C(F)F)n6)CC5)CC4(F)F)C3)c21 (stereo partly drawn) [I-760] | > 200 nM | > 200 nM |
| Cn1c(=O)n(C2CCC(=O)NC2=O)c2cccc(N3CC(C4CCN(C[C@H]5CC[C@H](n6cc(NC(=O)c7cnn8ccc(N9C[C@H]%10C[C@@H]9CO%10)nc78)c(C(F)F)n6)CC5)CC4(F)F)C3)c21 (stereo partly drawn) [I-761] | > 200 nM | > 200 nM |
| Cn1c(=O)n(C2CCC(=O)NC2=O)c2cccc(N3CC(C4CCN([C@H]5CC[C@H](n6cc(NC(=O)c7cnn8ccc(N9C[C@H]%10C[C@@H]9CO%10)nc78)c(C(F)F)n6)CC5)CC4(F)F)C3)c21 (stereo partly drawn) [I-762] | > 200 nM | > 200 nM |
| Cn1c(=O)n(C2CCC(=O)NC2=O)c2cccc(N3CCN(C(=O)C[C@]4(O)CC[C@@H](n5cc(NC(=O)c6cnn7cccnc67)c(C(F)F)n5)CC4)CC3)c21 (stereo partly drawn) [I-763] | > 200 nM | > 200 nM |
| Cn1c(=O)n(C2CCC(=O)NC2=O)c2cccc(N3CCN(C(=O)C[C@]4(O)CC[C@@H](n5cc6cc(NC(=O)c7cccc(C(F)(F)F)n7)ncc6n5)CC4)CC3)c21 (stereo partly drawn) [I-764] | > 200 nM | > 200 nM |
| COc1cc(NC(=O)c2cccc(C(F)(F)F)n2)cc2cn([C@H]3CC[C@H](CN4CCN(c5c(F)ccc6c5n(C)c(=O)n6C5CCC(=O)NC5=O)CC4)CC3)nc12 (stereo partly drawn) [I-765] | > 200 nM | > 200 nM |
| COc1nc(NC(=O)c2cccc(C(F)(F)F)n2)cc2cn([C@H]3CC[C@H](CN4CCN(c5cccc6c5n(C)c(=O)n6C5CCC(=O)NC5=O)CC4)CC3)nc12 (stereo partly drawn) [I-766] | > 200 nM | > 200 nM |

Source: patent US12091411B2, “IRAK degraders and uses thereof” (Kymera Therapeutics, Inc., priority 2022, dated 2024)
